Numbers after ± are expanded uncertainties.
Assay: activity coefficient (dimensionless); of the first substance listed, at infinite dilution; xn = mol fraction of the nth substance listed
Settings: 87.4 kPa, Liquid, Chromatography, x1 = 0

| SMILES | activity coefficient (313 K) | activity coefficient (323 K) | activity coefficient (333 K) | activity coefficient (343 K) |
| --- | --- | --- | --- | --- |
| ClCCCl [1,2-dichloroethane] + O=S(=O)([N-]S(=O)(=O)C(F)(F)F)C(F)(F)F.O=S(=O)([N-]S(=O)(=O)C(F)(F)F)C(F)(F)F.c1ccc2cc(C[N+]3(CCCCCCCCC[N+]4(Cc5ccc6ccccc6c5)CCCC4)CCCC3)ccc2c1 | 0.568 ± 0.032 | 0.569 ± 0.032 | 0.596 ± 0.033 | 0.613 ± 0.033 |
| Cc1ccccc1C [1,2-dimethylbenzene] + O=S(=O)([N-]S(=O)(=O)C(F)(F)F)C(F)(F)F.O=S(=O)([N-]S(=O)(=O)C(F)(F)F)C(F)(F)F.c1ccc2cc(C[N+]3(CCCCCCCCC[N+]4(Cc5ccc6ccccc6c5)CCCC4)CCCC3)ccc2c1 | 0.84 ± 0.039 | 0.852 ± 0.039 | 0.864 ± 0.04 | 0.894 ± 0.041 |
| Cc1cccc(C)c1 [1,3-dimethylbenzene] + O=S(=O)([N-]S(=O)(=O)C(F)(F)F)C(F)(F)F.O=S(=O)([N-]S(=O)(=O)C(F)(F)F)C(F)(F)F.c1ccc2cc(C[N+]3(CCCCCCCCC[N+]4(Cc5ccc6ccccc6c5)CCCC4)CCCC3)ccc2c1 | 0.857 ± 0.042 | 0.924 ± 0.042 | 0.941 ± 0.042 | 0.996 ± 0.045 |
| Cc1ccc(C)cc1 [1,4-dimethylbenzene] + O=S(=O)([N-]S(=O)(=O)C(F)(F)F)C(F)(F)F.O=S(=O)([N-]S(=O)(=O)C(F)(F)F)C(F)(F)F.c1ccc2cc(C[N+]3(CCCCCCCCC[N+]4(Cc5ccc6ccccc6c5)CCCC4)CCCC3)ccc2c1 | 0.881 ± 0.04 | 0.9 ± 0.041 | 0.929 ± 0.042 | 0.992 ± 0.045 |
| C1COCCO1 [1,4-dioxane] + O=S(=O)([N-]S(=O)(=O)C(F)(F)F)C(F)(F)F.O=S(=O)([N-]S(=O)(=O)C(F)(F)F)C(F)(F)F.c1ccc2cc(C[N+]3(CCCCCCCCC[N+]4(Cc5ccc6ccccc6c5)CCCC4)CCCC3)ccc2c1 | 0.382 ± 0.029 | 0.397 ± 0.029 | 0.413 ± 0.03 | 0.451 ± 0.031 |
| CC(=O)O [acetic acid] + O=S(=O)([N-]S(=O)(=O)C(F)(F)F)C(F)(F)F.O=S(=O)([N-]S(=O)(=O)C(F)(F)F)C(F)(F)F.c1ccc2cc(C[N+]3(CCCCCCCCC[N+]4(Cc5ccc6ccccc6c5)CCCC4)CCCC3)ccc2c1 | 0.824 ± 0.04 | 0.767 ± 0.038 | 0.746 ± 0.036 | 0.74 ± 0.036 |
| CC#N [acetonitrile] + O=S(=O)([N-]S(=O)(=O)C(F)(F)F)C(F)(F)F.O=S(=O)([N-]S(=O)(=O)C(F)(F)F)C(F)(F)F.c1ccc2cc(C[N+]3(CCCCCCCCC[N+]4(Cc5ccc6ccccc6c5)CCCC4)CCCC3)ccc2c1 | 0.339 ± 0.028 | 0.341 ± 0.028 | 0.349 ± 0.028 | 0.372 ± 0.029 |
| O=Cc1ccccc1 [benzaldehyde] + O=S(=O)([N-]S(=O)(=O)C(F)(F)F)C(F)(F)F.O=S(=O)([N-]S(=O)(=O)C(F)(F)F)C(F)(F)F.c1ccc2cc(C[N+]3(CCCCCCCCC[N+]4(Cc5ccc6ccccc6c5)CCCC4)CCCC3)ccc2c1 | 0.997 ± 0.044 | 0.997 ± 0.044 | 0.998 ± 0.044 | 0.999 ± 0.044 |
| c1ccccc1 [benzene] + O=S(=O)([N-]S(=O)(=O)C(F)(F)F)C(F)(F)F.O=S(=O)([N-]S(=O)(=O)C(F)(F)F)C(F)(F)F.c1ccc2cc(C[N+]3(CCCCCCCCC[N+]4(Cc5ccc6ccccc6c5)CCCC4)CCCC3)ccc2c1 | 0.515 ± 0.031 | 0.517 ± 0.031 | 0.52 ± 0.031 | 0.574 ± 0.034 |
| CCCC=O [butanal] + O=S(=O)([N-]S(=O)(=O)C(F)(F)F)C(F)(F)F.O=S(=O)([N-]S(=O)(=O)C(F)(F)F)C(F)(F)F.c1ccc2cc(C[N+]3(CCCCCCCCC[N+]4(Cc5ccc6ccccc6c5)CCCC4)CCCC3)ccc2c1 | 0.448 ± 0.03 | 0.464 ± 0.03 | 0.487 ± 0.03 | 0.491 ± 0.03 |
| C1CCCCC1 [cyclohexane] + O=S(=O)([N-]S(=O)(=O)C(F)(F)F)C(F)(F)F.O=S(=O)([N-]S(=O)(=O)C(F)(F)F)C(F)(F)F.c1ccc2cc(C[N+]3(CCCCCCCCC[N+]4(Cc5ccc6ccccc6c5)CCCC4)CCCC3)ccc2c1 | 3.83 ± 0.22 | 3.35 ± 0.19 | 2.98 ± 0.17 | 2.49 ± 0.16 |
| O=C1CCCCC1 [cyclohexanone] + O=S(=O)([N-]S(=O)(=O)C(F)(F)F)C(F)(F)F.O=S(=O)([N-]S(=O)(=O)C(F)(F)F)C(F)(F)F.c1ccc2cc(C[N+]3(CCCCCCCCC[N+]4(Cc5ccc6ccccc6c5)CCCC4)CCCC3)ccc2c1 | 0.998 ± 0.044 | 0.998 ± 0.044 | 0.999 ± 0.044 | 1 ± 0.044 |
| O=C1CCCC1 [cyclopentanone] + O=S(=O)([N-]S(=O)(=O)C(F)(F)F)C(F)(F)F.O=S(=O)([N-]S(=O)(=O)C(F)(F)F)C(F)(F)F.c1ccc2cc(C[N+]3(CCCCCCCCC[N+]4(Cc5ccc6ccccc6c5)CCCC4)CCCC3)ccc2c1 | 0.318 ± 0.028 | 0.324 ± 0.028 | 0.33 ± 0.028 | 0.347 ± 0.028 |
| CCO [ethanol] + O=S(=O)([N-]S(=O)(=O)C(F)(F)F)C(F)(F)F.O=S(=O)([N-]S(=O)(=O)C(F)(F)F)C(F)(F)F.c1ccc2cc(C[N+]3(CCCCCCCCC[N+]4(Cc5ccc6ccccc6c5)CCCC4)CCCC3)ccc2c1 | 1 ± 0.044 | 1.01 ± 0.045 | 0.937 ± 0.043 | 0.891 ± 0.041 |
| CCOC(C)=O [ethyl acetate] + O=S(=O)([N-]S(=O)(=O)C(F)(F)F)C(F)(F)F.O=S(=O)([N-]S(=O)(=O)C(F)(F)F)C(F)(F)F.c1ccc2cc(C[N+]3(CCCCCCCCC[N+]4(Cc5ccc6ccccc6c5)CCCC4)CCCC3)ccc2c1 | 0.541 ± 0.032 | 0.565 ± 0.032 | 0.601 ± 0.033 | 0.628 ± 0.034 |
| CCCCCCC [heptane] + O=S(=O)([N-]S(=O)(=O)C(F)(F)F)C(F)(F)F.O=S(=O)([N-]S(=O)(=O)C(F)(F)F)C(F)(F)F.c1ccc2cc(C[N+]3(CCCCCCCCC[N+]4(Cc5ccc6ccccc6c5)CCCC4)CCCC3)ccc2c1 | 6.72 ± 0.38 | 5.97 ± 0.33 | 5.44 ± 0.31 | 4.65 ± 0.29 |
| CCCCCC [hexane] + O=S(=O)([N-]S(=O)(=O)C(F)(F)F)C(F)(F)F.O=S(=O)([N-]S(=O)(=O)C(F)(F)F)C(F)(F)F.c1ccc2cc(C[N+]3(CCCCCCCCC[N+]4(Cc5ccc6ccccc6c5)CCCC4)CCCC3)ccc2c1 | 4.73 ± 0.24 | 3.9 ± 0.2 | – | – |
| CO [methanol] + O=S(=O)([N-]S(=O)(=O)C(F)(F)F)C(F)(F)F.O=S(=O)([N-]S(=O)(=O)C(F)(F)F)C(F)(F)F.c1ccc2cc(C[N+]3(CCCCCCCCC[N+]4(Cc5ccc6ccccc6c5)CCCC4)CCCC3)ccc2c1 | 0.821 ± 0.038 | – | – | – |
| CCCCCCCC [octane] + O=S(=O)([N-]S(=O)(=O)C(F)(F)F)C(F)(F)F.O=S(=O)([N-]S(=O)(=O)C(F)(F)F)C(F)(F)F.c1ccc2cc(C[N+]3(CCCCCCCCC[N+]4(Cc5ccc6ccccc6c5)CCCC4)CCCC3)ccc2c1 | 8.51 ± 0.48 | 7.57 ± 0.41 | 7.4 ± 0.39 | 6.71 ± 0.37 |
| CCCC(C)=O [pentan-2-one] + O=S(=O)([N-]S(=O)(=O)C(F)(F)F)C(F)(F)F.O=S(=O)([N-]S(=O)(=O)C(F)(F)F)C(F)(F)F.c1ccc2cc(C[N+]3(CCCCCCCCC[N+]4(Cc5ccc6ccccc6c5)CCCC4)CCCC3)ccc2c1 | 0.432 ± 0.029 | 0.437 ± 0.029 | 0.444 ± 0.03 | 0.448 ± 0.03 |
| CCCO [propan-1-ol] + O=S(=O)([N-]S(=O)(=O)C(F)(F)F)C(F)(F)F.O=S(=O)([N-]S(=O)(=O)C(F)(F)F)C(F)(F)F.c1ccc2cc(C[N+]3(CCCCCCCCC[N+]4(Cc5ccc6ccccc6c5)CCCC4)CCCC3)ccc2c1 | 1.33 ± 0.083 | 1.07 ± 0.057 | 1.02 ± 0.045 | 1.01 ± 0.044 |
| CC(C)O [propan-2-ol] + O=S(=O)([N-]S(=O)(=O)C(F)(F)F)C(F)(F)F.O=S(=O)([N-]S(=O)(=O)C(F)(F)F)C(F)(F)F.c1ccc2cc(C[N+]3(CCCCCCCCC[N+]4(Cc5ccc6ccccc6c5)CCCC4)CCCC3)ccc2c1 | 1.21 ± 0.061 | 1.09 ± 0.051 | 1.05 ± 0.048 | 0.992 ± 0.045 |
| c1ccncc1 [pyridine] + O=S(=O)([N-]S(=O)(=O)C(F)(F)F)C(F)(F)F.O=S(=O)([N-]S(=O)(=O)C(F)(F)F)C(F)(F)F.c1ccc2cc(C[N+]3(CCCCCCCCC[N+]4(Cc5ccc6ccccc6c5)CCCC4)CCCC3)ccc2c1 | 0.263 ± 0.028 | 0.266 ± 0.028 | 0.27 ± 0.028 | 0.287 ± 0.028 |
| ClC(Cl)(Cl)Cl [tetrachloromethane] + O=S(=O)([N-]S(=O)(=O)C(F)(F)F)C(F)(F)F.O=S(=O)([N-]S(=O)(=O)C(F)(F)F)C(F)(F)F.c1ccc2cc(C[N+]3(CCCCCCCCC[N+]4(Cc5ccc6ccccc6c5)CCCC4)CCCC3)ccc2c1 | 1.45 ± 0.07 | 1.47 ± 0.071 | 1.51 ± 0.073 | 1.52 ± 0.074 |
| Cc1ccccc1 [toluene] + O=S(=O)([N-]S(=O)(=O)C(F)(F)F)C(F)(F)F.O=S(=O)([N-]S(=O)(=O)C(F)(F)F)C(F)(F)F.c1ccc2cc(C[N+]3(CCCCCCCCC[N+]4(Cc5ccc6ccccc6c5)CCCC4)CCCC3)ccc2c1 | 0.714 ± 0.035 | 0.721 ± 0.035 | 0.723 ± 0.036 | 0.727 ± 0.036 |
| CCN(CC)CC [triethylamine] + O=S(=O)([N-]S(=O)(=O)C(F)(F)F)C(F)(F)F.O=S(=O)([N-]S(=O)(=O)C(F)(F)F)C(F)(F)F.c1ccc2cc(C[N+]3(CCCCCCCCC[N+]4(Cc5ccc6ccccc6c5)CCCC4)CCCC3)ccc2c1 | 0.762 ± 0.098 | 1.22 ± 0.081 | 1.35 ± 0.068 | 1.45 ± 0.072 |

— the NIST ThermoML archive (doi:10.1016/j.jct.2014.12.023)
